Read-outs that look alike come from different tables or passages of the source.
Key:
[1] = Comparative stability in aqueous acidic medium, content by HPLC; format: physicochemical
Description: […] Die Prüfung wurde bei unterschiedlichen pH-Werten in dem angegebenen Intervall durch Behandlung der wässrigen Lösungen des Dichlormethylats der Formel I und des Bezylats bei einer Temperatur von 53°C während 40 Stunden durchgeführt.
Chromatografische Bedingungen: Säule mit umgekehrter Phase C18, bewegliche Phase: wässrige 0,1 M Kaliumhydrogenphosphat, enthaltend Natriumoktylhydrogensulfat (1 g/I) und Azetonitril in einem Verhältnis 1:1. Durchlaßgeschwindigkeit 1,5 ml/Min.
Es werden je 7 Proben einer 0,5%-igen wässrigen Lösung des Dichlorids I und des Dibezylats mit bestimmten pH-Werten zubereitet, was durch Zufügen von Ortophospharsäure ereicht wird. Die Proben verweilen 40 Stunden bei einer Temperatur von 53°C. Danach wird der Prozentgehalt an Dichlorid und Dibezylat in den Proben gemessen.

[2] = pH 2,5; literature reference (4); cited from earlier work
[3] = Solubility compared with known salts (no method given); format: physicochemical
Neuromuskel-Übertragung = assay: Sciatic nerve-gastrocnemius preparation in cats: muscle contraction on nerve stimulation (neuromuscular block); format: in vivo, Katzen; details: for Eintreten der Neuro-muskel-Blockierung / Wiederherstellung der Neuromuskel-Übertragung: dose 0,2 mg/kg
Description: Die Versuche wurden an Katzen unter Einführen von gleichen Dosen des Originalpräparats "Tracrium" und der Verbindung der Formel I. Es wurde das klassische Verfahren "I-schiadiensgastrocnemicus" benutzt. Es wurde eine Kontraktion des Muskels Gastrocnemicus zufolge einer Reizung des Hüftnervs (Ischiasnervs) registriert. Die Ergebnisse sind in Tabelle II dargestellt.

**Q.** Which remaining at 40 h ([1]; acidic aqueous solution, pH 3, at pH 3,50, 53°C, read-out: Prozentgehalt, Maximum) does the source give for `COc1ccc(CC2c3cc(OC)c(OC)cc3CC[N+]2(C)CCC(=O)OCCCCCOC(=O)CC[N+]2(C)CCc3cc(OC)c(OC)cc3C2Cc2ccc(OC)c(OC)c2)cc1OC` (stereo not shown) [Dibezylat, Dibesylat des N,N-4,10-Dioxa-3,11-Dioxotridezylen-1,13-bis-tetrahydropapaverins, reference compound] here?
**A.** 73.8%

**Q.** And the remaining at 40 h ([1]; aqueous solution, phosphoric acid, pH 1, pH 1,76, 0,5% aqueous solution, 53°C, read-out: Prozent-gehalt)?
**A.** 60.6%

**Q.** And the remaining at 40 h ([1]; aqueous solution, phosphoric acid, pH 2, pH 2,88, 0,5% aqueous solution, 53°C, read-out: Prozent-gehalt)?
**A.** 72.9%

**Q.** What about the remaining at 40 h ([1]; aqueous solution, phosphoric acid, pH 3, pH 3,16, 0,5% aqueous solution, 53°C, read-out: Prozent-gehalt) of the same compound?
**A.** 73.5%

**Q.** And the remaining at 40 h ([1]; aqueous solution, phosphoric acid, pH 3, pH 3,50, 0,5% aqueous solution, 53°C, read-out: Prozent-gehalt)?
**A.** 73.8%

**Q.** And the remaining at 40 h ([1]; aqueous solution, phosphoric acid, pH 3, pH 3,71, 0,5% aqueous solution, 53°C, read-out: Prozent-gehalt)?
**A.** 72.2%

**Q.** And the remaining at 40 h ([1]; aqueous solution, phosphoric acid, pH 4, pH 4,09, 0,5% aqueous solution, 53°C, read-out: Prozent-gehalt)?
**A.** 68.8%

**Q.** And the “Prozentgehalt niedriger im Vergleich zur Verbindung der Formel I” value ([1]; pH interval 2,46 bis 3,77, 53°C, 40 h)?
**A.** ~20%

**Q.** What about the “Prozentgehalt des Bezylats bei maximaler Stabilität” value [2] of the same compound?
**A.** 76%

**Q.** With `COc1ccc(CC2c3cc(OC)c(OC)cc3CC[N+]2(C)CCC(=O)OCCCCCOC(=O)CC[N+]2(C)CCc3cc(OC)c(OC)cc3C2Cc2ccc(OC)c(OC)c2)cc1OC` (stereo not shown) [Dichlormethylat der Formel I, N,N-Dimethyl-N,N-4,10-dioxa-3,11-dioxotridezylen-1,13-tetrachydropapaverinoil-dichlorid] as the compound, how does the remaining at 40 h ([1]; acidic aqueous solution, pH 3, at pH 3,0 -3,27, 53°C, read-out: Prozentgehalt, Maximum) read?
**A.** 91.9%

**Q.** What about the remaining at 40 h ([1]; acidic aqueous solution, pH interval 2,46 bis 3,77, 53°C, read-out: Prozentgehalt) of the same compound?
**A.** 86 to 91.9%

**Q.** What about the “Stabilität im Vergleich zum Bezylat” value ([1]; aqueous acidic medium, pH 1,7 bis 4,0, 53°C, 40 h) of the same compound?
**A.** wesentlich stabiler

**Q.** What about the remaining at 40 h ([1]; aqueous solution, phosphoric acid, pH 2, pH 2,46, 0,5% aqueous solution, 53°C, read-out: Prozent-gehalt) of the same compound?
**A.** 88.1%

**Q.** What about the remaining at 40 h ([1]; aqueous solution, phosphoric acid, pH 2, pH 2,75, 0,5% aqueous solution, 53°C, read-out: Prozent-gehalt) of the same compound?
**A.** 89.5%

**Q.** What about the remaining at 40 h ([1]; aqueous solution, phosphoric acid, pH 3, pH 3,04, 0,5% aqueous solution, 53°C, read-out: Prozent-gehalt) of the same compound?
**A.** 91.9%

**Q.** And the remaining at 40 h ([1]; aqueous solution, phosphoric acid, pH 3, pH 3,27, 0,5% aqueous solution, 53°C, read-out: Prozent-gehalt)?
**A.** 91.4%

**Q.** And the remaining at 40 h ([1]; aqueous solution, phosphoric acid, pH 3, pH 3,58, 0,5% aqueous solution, 53°C, read-out: Prozent-gehalt)?
**A.** 87.6%

**Q.** And the Prozent-gehalt ([1]; pH 4,09, 0,5% aqueous solution, 53°C, 40 h, listed as Dichlor-methyl der Formel I, 2400 min)?
**A.** 70,4%

**Q.** What about the “Löslichkeit im Vergleich zu dem bekannten Dijodid und den anderen Salzen derselben Gruppe” value [3] of the same compound?
**A.** bessere Löslichkeit

**Q.** What about the “Eintreten der Neuro-muskel-Blockierung” value (Neuromuskel-Übertragung; cats) of the same compound?
**A.** 60,3 Sek.

**Q.** And the “Wiederherstellung der Neuromuskel-Übertragung” value (Neuromuskel-Übertragung; cats)?
**A.** 29,8 Min.

**Q.** What about the “Eintreten, Wiederherstellung und Dauer des Effekts der Neuromuskelübertragung im Vergleich zu "Tracrium"” value (Neuromuskel-Übertragung; cats, equal doses) of the same compound?
**A.** keinen statistisch wesentlichen Unterschied

**Q.** What about the “biologischer Effekt bei den pharmakologischen Prüfungen” value (Neuromuskel-Übertragung; same effect with smaller quantity of active substance) of the same compound?
**A.** verbesserten biologischen Effekt

**Q.** With `COc1ccc(CC2c3cc(OC)c(OC)cc3CC[N+]2(C)CCC(=O)OCCCCCOC(=O)CC[N+]2(C)CCc3cc(OC)c(OC)cc3C2Cc2ccc(OC)c(OC)c2)cc1OC` (stereo not shown) [Tracrium, Dibesylat des N,N-4,10-Dioxa-3,11-Dioxotridezylen-1,13-bis-tetrahydropapaverins, reference compound] as the compound, how does the “Eintreten der Neuro-muskel-Blockierung” value (Neuromuskel-Übertragung; cats) read?
**A.** 60,4 Sek.

**Q.** What about the “Wiederherstellung der Neuromuskel-Übertragung” value (Neuromuskel-Übertragung; cats) of the same compound?
**A.** 34,6 Min.
